What was measured:
[1] = Caloric availability, two week feeding study; type: in vivo; details: young male Sprague-Dawley rats, modified AIN-76 diet at 15% added fat level
Protocol: Caloric availability of the compounds are evaluated by the two week feeding study of young male Sprague-Dawley rats weighing approximately 50 to 60 gm. This caloric availability study as described described by Finley, et al. ((1994) J. Agric. Food Chem. 42:489-494) was modified to use smaller amounts of test materials. The feeding study was conducted using a modified AIN-76 diet at 15% added fat level and five test animals are used for each compound. Weight gains are monitored at days 0,3,7,10 and 14.

[2] = target: T1, porcine lipase (Sus scrofa, UniProt P00591); test: Hydrolysis by pancreatic lipase, organic solvent system; type: in vitro ADME; details: organic solvent (t-amyl alcohol), 30° C., 20 h
T1 sequence (P00591 1-450): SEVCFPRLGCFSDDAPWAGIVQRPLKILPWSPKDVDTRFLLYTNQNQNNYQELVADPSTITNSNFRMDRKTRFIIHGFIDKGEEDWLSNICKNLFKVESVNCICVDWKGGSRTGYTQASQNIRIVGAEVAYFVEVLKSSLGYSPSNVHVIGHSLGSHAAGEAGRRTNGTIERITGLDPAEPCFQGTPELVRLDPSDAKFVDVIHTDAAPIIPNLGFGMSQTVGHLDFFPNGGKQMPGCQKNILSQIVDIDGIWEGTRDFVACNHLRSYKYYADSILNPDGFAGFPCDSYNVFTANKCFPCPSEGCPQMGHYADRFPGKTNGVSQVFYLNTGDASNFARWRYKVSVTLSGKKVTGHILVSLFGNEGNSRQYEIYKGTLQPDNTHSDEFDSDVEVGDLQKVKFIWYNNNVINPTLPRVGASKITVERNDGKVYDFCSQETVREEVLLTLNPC
Protocol: (§1) The digestibility of the acylated triglycerides of the present invention were done to compare with triolein. The in-vitro assays were done using two emulsion systems as in the following procedure.
Each digest was carried out with 300 mg of the fat/fat substitute, 9 ml of the t-amyl alcohol, 0.5 ml of Bis-Tris propane buffer (10 mM, pH 7.8) and 0.5 ml of porcine lipase (20 mg/ml). The reaction was incubated at 30° C. and the reaction stopped by adding 1 ml aliquots to 3 ml of isopropanol/heptane/sulfuric acid (40/10/1). The product was extracted with heptane and analyzed by GC and GC-MS at 360° C. The hydrolysis of the acetylated castor (hydrogenated) was 48% complete in 20 h and triolein was hydrolyzed to 69%.

[3] = target: T1, porcine lipase; test: Hydrolysis by pancreatic lipase, aqueous emulsion system; type: in vitro ADME; details: aqueous emulsion (HMPC, sodium cholate), 30 ° C.
Protocol: as §1
A mixture of 300 mg of the fat/fat substitute, 4 ml of Bis-Tris propane buffer (10 mM, pH 7.8), 5 ml of hydroxyproylmethylcellulose (HMPC, […]), 0.5 ml of sodium cholate (0.1M) were sonicated to disperse the fats and incubated at 30 ° C. Porcine lipase (0.5 ml, 20 mg/ml) was added. The analysis of the reaction was carried out as in the above organic solution assay. Acetylated castor (hydrogenated) was 70% hydrolyzed while triolein under similar conditions was 93% hydrolyzed.

| Compound | caloric availability [1] | hydrolysis [2] | hydrolyzed [3] |
| --- | --- | --- | --- |
| CCCCCCCCCCCCCCCCCC(=O)OC(CCCCCC)CCCCCCCCCCCCC(=O)OCC(COC(=O)CCCCCCCCCCCCC(CCCCCC)OC(=O)CCCCCCCCCCCCCCCCC)OC(=O)CCCCCCCCCCCCCCCCC (stereo not shown) [distearoyl lesquerella oil-hydrogenated, 1,3-bis(14-octadecanoyloxy)eicosanoic acid-2-octadecanoic acid triglyceride] | 5.6 kcal/g |  |  |
| CCCCCCC(CCCCCCCCCCC(=O)OCC(COC(=O)CCCCCCCCCCC(CCCCCC)OC(C)=O)OC(=O)CCCCCCCCCCC(CCCCCC)OC(C)=O)OC(C)=O (stereo not shown) [acetylated castor (hydrogenated), 12-acetyloxyoctadecanoic acid triglyceride] | 6 kcal/g | 48% | 70% |

Source: US20010048964A1, “Low calorie fat compositions” (priority 2000, published 2001)
